Legend:
[1] = test system: c-MYC Pu22 (DNA, G4) TGAGGGTGGGTAGGGTGGGTAA; assay: UV-vis and fluorescence titration; details: 100 mM KCl; 50 mM Tris pH 7.5, 25 °C; 1.5-3.0 μM compound, up to 5.0 eq. DNA
[2] = test system: Tel-22 (DNA, G4) AGGGTTAGGGTTAGGGTTAGGG; assay: UV-vis and fluorescence titration; details: 100 mM KCl; 50 mM Tris pH 7.5, 25 °C; 1.5-3.0 μM compound, up to 5.0 eq. DNA
[3] = test system: TBA (DNA, G4) GGTTGGTGTGGTTGG; assay: UV-vis and fluorescence titration; details: 100 mM KCl; 50 mM Tris pH 7.5, 25 °C; 1.5-3.0 μM compound, up to 5.0 eq. DNA
[4] = test system: c-MYC Pu22 (DNA, G4) TGAGGGTGGGTAGGGTGGGTAA; assay: fluorescence displacement of 2a; details: tracer 2a displaced
[5] = test system: c-MYC Pu22 (DNA, G4) TGAGGGTGGGTAGGGTGGGTAA; assay: fluorescence titration, 1:1 global fit (Bindfit); details: 100 mM KCl; 50 mM Tris pH 7.5, 25 °C, 0.6% DMSO; 1.5 μM compound
[6] = test system: c-KIT 2 (DNA, G4) CCCGGGCGGGCGCGAGGGAGGGGAGG; assay: fluorescence titration, 1:1 global fit (Bindfit); details: 100 mM KCl; 50 mM Tris pH 7.5, 25 °C, 0.6% DMSO; 1.5 μM compound
[7] = test system: VAV-1 (DNA, G4) GGGCAGGGAGGGAACTGGG; assay: fluorescence titration, 1:1 global fit (Bindfit); details: 100 mM KCl; 50 mM Tris pH 7.5, 25 °C, 0.6% DMSO; 1.5 μM compound
[8] = test system: BCL-2 (DNA, G4) GGGCGCGGGAGGGAATTGGCGGGG; assay: fluorescence titration, 1:1 global fit (Bindfit); details: 100 mM KCl; 50 mM Tris pH 7.5, 25 °C, 0.6% DMSO; 1.5 μM compound
[9] = test system: Tel-22 (DNA, G4) AGGGTTAGGGTTAGGGTTAGGG; assay: fluorescence titration, 1:1 global fit (Bindfit); details: 100 mM KCl; 50 mM Tris pH 7.5, 25 °C, 0.6% DMSO; 1.5 μM compound
[10] = test system: c-MYC Pu24T (DNA, G4) TGAGGGTGGTGAGGGTGGGGAAGG; assay: 1D 1H NMR titration, imino shifts; details: 10 mM potassium phosphate, 35 mM KCl; pH 7.4, 298 K; 90 μM DNA, up to 5 eq. 2a
[11] = test system: c-MYC sG4 (DNA, G4) GGGTGGGTAGGGTGGG; assay: fluorescence titration, 1:1 global fit (Bindfit); details: 100 mM KCl; 50 mM Tris pH 7.5, 25 °C, 0.6% DMSO; 1.5 μM compound

binding [1] | binding [2] | binding [3] | binding [4] | Compound | Kd [5] [µM] | Kd [6] [µM] | Kd [7] [µM] | Kd [8] [µM] | Kd [9] [µM] | binding [10] | Kd [11] [µM]
no | no | no |  | N=C(N)c1cc2ccc(O)cc2oc1=O |  |  |  |  |  |  | 
 |  |  | yes | C[n+]1cc(NC(=O)c2ccc3ccc4ccc(C(=O)Nc5cc6ccccc6[n+](C)c5)nc4c3n2)cc2ccccc21 |  |  |  |  |  |  | 
 |  |  |  | N=C(N)c1cc2cc3c4c(c2oc1=O)CCCN4CCC3 | 0.3 | 0.7 | 0.3 | 0.5 | 3.8 |  | 
 |  |  |  | CCN(CC)c1ccc2cc(C(=N)N)c(=O)oc2c1 | 13.0 | 9.1 | 15.0 | 14.6 | 45.2 | yes | 12.6

Reference: publication PMC8397291 (2021)
